The values below come from patent publication US10030027B2, “Soluble guanylate cyclase stimulators” (MERCK SHARP & DOHME CORP., priority 2015, dated 2018).

Experiment [1] concerns the target sGC α1/β1 heterodimer (Homo sapiens (Human), UniProt Q02108+Q02153). Description: Cell-based sGC functional assay (cyclic GMP assay for sGC activator: CASA assay). Particulars: CHO-K1/sGC cells; for Emax: CHO-K1, activity expressed as percentage of compound A (standard), read-out: % Activation; for EC50: inflection point, 4P fit, read-out: IP. The method, boiled down: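 CHO-K1 cells stably expressing sGC α1/β1 were pre-incubated with or without 1 μM DETA-NO (30 min, 25 °C), then exposed to compounds for 1 hr at 37 °C with 0.5 mM IBMX. Intracellular cGMP was read by HTRF and expressed as a percentage of a reference heme-dependent activator's maximum.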

Experiment [2] addresses human recombinant sGC enzyme (Homo sapiens (Human), UniProt Q02108+Q02153). In words: Size Exclusion Chromatography (SEC) competition binding assay using [3H] Ex-77B as the radioligand. Particulars: [3H] Ex-77B radioligand, 24 hours at 37° C. The method, boiled down:
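Recombinant human sGC binding measured by competition against tritiated Ex-77B radioligand, with non-specific binding defined by 1 μM unlabeled Ex-77B.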

Experiment [3] deals with hypoxia-induced pulmonary hypertension rat. Description: Acute efficacy in hypoxia-induced pulmonary hypertension in rat following intratracheal administration. Format: in vivo. The source says: Acute Efficacy in Hypoxia-Induced Pulmonary Hypertension in Rat Following Intratracheal Administration Charles River Sprague-Dawley (CD) male rats weighing approximately 350 g were implanted with HD-S21 dual pressure telemetry transmitters (Data Sciences International (DSI)) into the pulmonary artery and femoral artery. This transmitter enables simultaneous measurement of both pulmonary and systemic hemodynamic parameters in the same animal. After a 7-10 day post-operative recovery period, animals were subjected to a normobaric hypoxic (10% oxygen) environment using a Higher Peak Mountain Air Generator (MAG-10) connected to a modified rodent cage via a fitted inlet port. Oxygen (at 10%), temperature, humidity, and CO2 were controlled within normal range and animals were maintained on a 12 hour light-dark cycle with ad libitum access to food and water. After two weeks exposure to 10% O2 hypoxic environment, systolic pulmonary arterial pressure readings increased from 25 mmHg to greater than 50 mmHg. Using a 48 hour baseline average, animals with readings between 50-110 mmHg (standard deviation of less than 10 mmHg) and minimal changes in systolic systemic blood pressure were enrolled for study. Animals were utilized for up to 2 studies per week for 4 weeks with a minimum of 2 days washout between doses of test agent. Compound or vehicle was administered intra-tracheally under light isoflurane anesthesia (5% in oxygen; flow rate 2.0 L/min for 3 minutes). Once anesthetized, rats were placed on an angled intubation stand in supine position and the trachea visualized using a small laryngoscope. Animals then received either 0.5 mL/kg of vehicle or 0.5 mL/kg vehicle containing compound intra-tracheally delivered via microsprayer by use of a Penn-Century Microsprayer® needle 3″ (Model IA-1B-GP) attached to a 1 mL high pressure syringe (Penn Century-Model B-SYR-PL1000) (Penn-Century, Philadelphia, Pa.). The Microsprayer® tip was inserted into the trachea up to the point at which the bend in the needle is close to the tip of the snout, which positions the tip of the Microsprayer® in front of the carina (bifurcation of trachea at the bronchi). After dose delivery the animal is placed on its back in the home cage for recovery. Hemodynamic measurements were continuously recorded and readings consolidated to hourly moving averages. Each animal received a vehicle on Day 1 followed by vehicle or test agent on Day 2. Change from vehicle baseline was calculated by subtracting the hourly Day 1 vehicle response from the hourly Day 2 response and treatment group data was expressed as mean±SEM. Decreases of systolic blood pressure (SBP) and systolic pulmonary arterial pressure (PAP) were measured at a particular IT dose (mpk milligrams per kilogram) for the following Example compounds.

With `CC1(c2cn(CCC(=O)O)nn2)C(=O)Nc2nc(-c3nn(CCC(F)(F)C(F)(F)F)c4ncccc34)nc(N)c21` (stereo not shown) [Example 12B, 3-(4-{4-amino-5-methyl-6-oxo-2-[1-(3,3,4,4,4-pentafluorobutyl)-1H-pyrazolo[3,4-b]pyridin-3-yl]-6,7-dihydro-5H-pyrrolo[2,3-d]pyrimidin-5-yl}-1H-1,2,3-triazol-1-yl)propanoic acid], in experiment [1], the Emax is 81% and the EC50 was 2880 nM. For the same compound, the Ki in experiment [2] came to 2.04 nM. For the same compound, in experiment [3] (Dose IT 0.1 mpk), the “Category: decrease in SBP (at minimum decrease in PAP of ≥15 mmHg)” value (“Category: decrease in SBP” for short) is on record as “B (decrease in SBP 5-10 mmHg)”.
Turning to `C[C@@]1(c2ccc(CCC(=O)O)cc2)C(=O)Nc2nc(-c3nn(Cc4ccccc4F)c4cc(Cl)ccc34)nc(N)c21` [Example 47B, (S)-3-(4-{4-amino-2-[6-chloro-1-(2-fluorobenzyl)-1H-indazol-3-yl]-5-methyl-6-oxo-6,7-dihydro-5H-pyrrolo[2,3-d]pyrimidin-5-yl}phenyl)propanoic acid], in experiment [1], the Emax was found to be 88% and the EC50 stood at 218 nM. For the same compound, in experiment [2], the Ki is 0.114 nM. Besides, the “Category: decrease in SBP” value in experiment [3] (Dose IT 0.03 mpk) is on record as “A (decrease in SBP 0-5 mmHg)”.
For `CC(C)(Cc1csc([C@]2(C)C(=O)Nc3nc(-c4nn(Cc5ccccc5F)c5cc(Cl)ccc45)nc(N)c32)n1)C(=O)O` [Example 95B, (S)-3-(2-{4-amino-2-[6-chloro-1-(2-fluorobenzyl)-1H-indazol-3-yl]-5-methyl-6-oxo-6,7-dihydro-5H-pyrrolo[2,3-d]pyrimidin-5-yl}-1,3-thiazol-4-yl)-2,2-dimethylpropanoic acid], in experiment [1], the Emax is 118% and the EC50 was 157 nM. For the same compound, the Ki in experiment [2] was found to be 0.06 nM. In experiment [3] (Dose IT 0.03 mpk), the “Category: decrease in SBP” value is recorded as “A (decrease in SBP 0-5 mmHg)”.
With `C[C@@]1(c2ccc(CCc3nn[nH]n3)cc2)C(=O)Nc2nc(-c3nn(Cc4ccccc4F)c4cc(Cl)ccc34)nc(N)c21` [Example 112B, (S)-4-Amino-2-[6-chloro-1-(2-fluorobenzyl)-1H-indazol-3-yl]-5-methyl-5-{4-[2-(2H-tetrazol-5-yl)ethyl]phenyl}-5,7-dihydro-6H-pyrrolo[2,3-d]pyrimidin-6-one], in experiment [1], the Emax was found to be 130% and the EC50 amounted to 2520 nM. In experiment [2], the Ki was determined as 0.066 nM. In addition, the “Category: decrease in SBP” value in experiment [3] (Dose IT 0.01 mpk) is on record as “A (decrease in SBP 0-5 mmHg)”.
Take `CC1(c2ccc(CCC(=O)O)cn2)C(=O)Nc2nc(-c3nn(CCC(F)(F)C(F)(F)F)c4cc(Cl)ccc34)nc(N)c21` (stereo not shown) [Example 119B, 3-(6-{4-Amino-2-[6-chloro-1-(3,3,4,4,4-pentafluorobutyl)-1H-indazol-3-yl]-5-methyl-6-oxo-6,7-dihydro-5H-pyrrolo[2,3-d]pyrimidin-5-yl}pyridin-3-yl)propanoic acid]: in experiment [1], the Emax amounted to 103% and the EC50 was determined as 839 nM. The inhibition constant (Ki) in experiment [2] was 0.292 nM. Further, the “Category: decrease in SBP” value in experiment [3] (Dose IT 0.03 mpk) is on record as “A (decrease in SBP 0-5 mmHg)”.
On to `CC1(c2nc(CCC(F)(F)C(=O)O)co2)C(=O)Nc2nc(-c3nn(Cc4ccccc4F)c4cc(Cl)ccc34)nc(N)c21` (stereo not shown) [Example 127A, 4-(2-{4-amino-2-[6-chloro-1-(2-fluorobenzyl)-1H-indazol-3-yl]-5-methyl-6-oxo-6,7-dihydro-5H-pyrrolo[2,3-d]pyrimidin-5-yl}-1,3-oxazol-4-yl)-2,2-difluorobutanoic acid], for which, in experiment [1], the Emax was 117% and the EC50 amounted to 52 nM. In addition, in experiment [2], the Ki came to 0.057 nM. Moreover, the “Category: decrease in SBP” value in experiment [3] (Dose IT 0.03 mpk) is reported as “A (decrease in SBP 0-5 mmHg)”.
Turning to `C[C@@]1(c2ccc(CCC(=O)O)cc2)C(=O)Nc2nc(-c3nn(CC4CCCC4)c4cc(Cl)ccc34)nc(N)c21` [Example 160B, (S)-3-(4-{4-amino-2-[6-chloro-1-(cyclopentylmethyl)-1H-indazol-3-yl]-5-methyl-6-oxo-6,7-dihydro-5H-pyrrolo[2,3-d]pyrimidin-5-yl}phenyl)propanoic acid], in experiment [1], the Emax stood at 108% and the EC50 worked out at 111 nM. Besides, the Ki in experiment [2] came to 0.062 nM. Besides, the “Category: decrease in SBP” value in experiment [3] (Dose IT 0.01 mpk) is “B (decrease in SBP 5-10 mmHg)”.
